# Like-named read-outs stand apart in the source and are kept apart here.
# Columns and labels:
# [1] = test system: HIV-1IIIB strain; experiment: In vitro combined test: survival of HIV-1IIIB-infected MT4 cells (MTT), isobologram and combination index; assay type: cell-based
# [2] = test system: HIV-1IIIB strain; experiment: as above; assay type: cell-based; details: read-out: IC50 of Preparation example 117
# Method: Human T cell transformed cell line MT4 cells were cultured in RPMI 1640 medium containing 10% fetal bovine serum. HIV-1IIIB strain was obtained from HIV-1IIIB chronically infected Molt-4 cells as a supernatant fluid and used as the source of infectious viruses. The 50% tissue culture infectious dose (TCID50) of this fluid was determined by the endpoint titration methods.
# The compound of Preparation example 117 was added in a serial dilution in the vertical direction to six 96-well microtiter plates. As a result of adding ZDV (Sigma) in a serial dilution in the horizontal direction, diluted solutions containing mixtures of various concentrations were prepared in 96-well microtiter plates (n=4).
# MT4 cells were exposed to HIV-1IIIB fluid at a multiplicity of infection (m.o.i) 0.001 TCID50/ml at 37°C for 1 hour, then the cells were washed twice with PBS, and aliquots (5 x 10^4 cells/well) were placed in the plates containing various concentration of agent prepared as described above. After incubation for 6 days, the survival rate of infected MT4 cells was determined by the cell survival test using MTT (Sigma). Incidentally, in this test, the absorbance at O.D. 540 nm was measured by a plate reader, and the survival rate was determined by drawing a cell survival curve.
# Analysis was performed according to the method of Barenbaum using an isobologram and combination index (CI) (Barenbaum, M.C., Pharmacol. Rev., 41, 93-141, 1989). In this case, the CI value was calculated by the general isobole equation. Determination of synergy, addition and […] was performed by isobologram curve patterns and/or statistical comparison of experimental CI values with CI values in typical additive effects (CI values when identical compounds are used in combination (0.85±0.11, Taylor, D.L. et al., Antiviral Chem. Chemother., 6, 143-152, 1995)).
smiles,measurement,setting,value
"Nc1ccn([C@@H]2CS[C@H](CO)O2)c(=O)n1 [3TC, 4-amino-1-(2-hydroxymethyl-1,3-oxathioran-5-yl)-(1H)-pyrimidin-2-one, reference compound]",IC50,"[1]; Human immunodeficiency virus 1, MT4, alone (Preparation example 117 0), Table 33 experiment, read-out: IC50 of 3TC",0.6 µg/mL
same,IC50,"[1]; Human immunodeficiency virus 1, MT4, with Preparation example 117 0.38 ng/ml, read-out: IC50 of 3TC",0.5 µg/mL
same,IC50,"[1]; Human immunodeficiency virus 1, MT4, with Preparation example 117 0.78 ng/ml, read-out: IC50 of 3TC",0.52 µg/mL
same,IC50,"[1]; Human immunodeficiency virus 1, MT4, with Preparation example 117 0.96 ng/ml, read-out: IC50 of 3TC",0.5 µg/mL
same,IC50,"[1]; Human immunodeficiency virus 1, MT4, with Preparation example 117 1.56 ng/ml, read-out: IC50 of 3TC",0.43 µg/mL
same,IC50,"[1]; Human immunodeficiency virus 1, MT4, with Preparation example 117 3.13 ng/ml, read-out: IC50 of 3TC",0.34 µg/mL
same,IC50,"[1]; Human immunodeficiency virus 1, MT4, with Preparation example 117 4.57 ng/ml, read-out: IC50 of 3TC",0.25 µg/mL
same,IC50,"[1]; Human immunodeficiency virus 1, MT4, with Preparation example 117 6.25 ng/ml, read-out: IC50 of 3TC",0.19 µg/mL
same,IC50,"[1]; Human immunodeficiency virus 1, MT4, with Preparation example 117 8.0 ng/ml, read-out: IC50 of 3TC",0.125 µg/mL
same,IC50,"[1]; Human immunodeficiency virus 1, MT4, with Preparation example 117 12.4 ng/ml, read-out: IC50 of 3TC",0.063 µg/mL
same,IC50,"[1]; Human immunodeficiency virus 1, MT4, with Preparation example 117 12.7 ng/ml, read-out: IC50 of 3TC",0.0313 µg/mL
same,IC50,"[1]; Human immunodeficiency virus 1, MT4, with Preparation example 117 13.0 ng/ml, read-out: IC50 of 3TC",0.0156 µg/mL
"OC[C@@H]1CC[C@H](n2cnc3c(O)ncnc32)O1 [DDI, 2',3'-dideoxyinosine, reference compound]",IC50,"[1]; Human immunodeficiency virus 1, MT4, alone (Preparation example 117 0), Table 34 experiment, read-out: IC50 of DDI",5400 nM
same,IC50,"[1]; Human immunodeficiency virus 1, MT4, with Preparation example 117 0.39 ng/ml, read-out: IC50 of DDI",4270 nM
same,IC50,"[1]; Human immunodeficiency virus 1, MT4, with Preparation example 117 0.78 ng/ml, read-out: IC50 of DDI",4380 nM
same,IC50,"[1]; Human immunodeficiency virus 1, MT4, with Preparation example 117 1.56 ng/ml, read-out: IC50 of DDI",3650 nM
same,IC50,"[1]; Human immunodeficiency virus 1, MT4, with Preparation example 117 3.13 ng/ml, read-out: IC50 of DDI",2800 nM
same,IC50,"[1]; Human immunodeficiency virus 1, MT4, with Preparation example 117 3.85 ng/ml, read-out: IC50 of DDI",2500 nM
same,IC50,"[1]; Human immunodeficiency virus 1, MT4, with Preparation example 117 6.25 ng/ml, read-out: IC50 of DDI",1670 nM
same,IC50,"[1]; Human immunodeficiency virus 1, MT4, with Preparation example 117 7.70 ng/ml, read-out: IC50 of DDI",1250 nM
same,IC50,"[1]; Human immunodeficiency virus 1, MT4, with Preparation example 117 10.0 ng/ml, read-out: IC50 of DDI",630 nM
same,IC50,"[1]; Human immunodeficiency virus 1, MT4, with Preparation example 117 10.5 ng/ml, read-out: IC50 of DDI",313 nM
same,IC50,"[1]; Human immunodeficiency virus 1, MT4, with Preparation example 117 11.0 ng/ml, read-out: IC50 of DDI",156 nM
"Cn1cc(C(=O)O)c(=O)c2cc(F)c(N3CCN(c4ncccn4)CC3)c(C(F)(F)F)c21 [Preparation example 117, 6-fluoro-8-trifluoromethyl-1,4-dihydro-4-oxo-1-methyl-7-[4-(2-pyrimidinyl)piperazin-1-yl]quinoline-3-carboxylic acid]",IC50,"[1]; Human immunodeficiency virus 1, MT4, alone (3TC 0), Table 33 experiment, read-out: IC50 of Preparation example 117",0.016 µg/mL
same,IC50,"[1]; Human immunodeficiency virus 1, MT4, alone (DDI 0), Table 34 experiment, read-out: IC50 of Preparation example 117",0.014 µg/mL
same,IC50,"[1]; Human immunodeficiency virus 1, MT4, alone (ZDV 0), Table 32 experiment, read-out: IC50 of Preparation example 117",0.039 µg/mL
same,IC50,"[1]; Human immunodeficiency virus 1, MT4, with 3TC 0.0156 µg/ml, read-out: IC50 of Preparation example 117",0.013 µg/mL
same,IC50,"[1]; Human immunodeficiency virus 1, MT4, with 3TC 0.0313 µg/ml, read-out: IC50 of Preparation example 117",0.0127 µg/mL
same,IC50,"[1]; Human immunodeficiency virus 1, MT4, with 3TC 0.063 µg/ml, read-out: IC50 of Preparation example 117",0.0124 µg/mL
same,IC50,"[1]; Human immunodeficiency virus 1, MT4, with 3TC 0.125 µg/ml, read-out: IC50 of Preparation example 117",0.008 µg/mL
same,IC50,"[1]; Human immunodeficiency virus 1, MT4, with 3TC 0.19 µg/ml, read-out: IC50 of Preparation example 117",0.00625 µg/mL
same,IC50,"[1]; Human immunodeficiency virus 1, MT4, with 3TC 0.25 µg/ml, read-out: IC50 of Preparation example 117",0.00457 µg/mL
same,IC50,"[1]; Human immunodeficiency virus 1, MT4, with 3TC 0.34 µg/ml, read-out: IC50 of Preparation example 117",0.00313 µg/mL
same,IC50,"[1]; Human immunodeficiency virus 1, MT4, with 3TC 0.43 µg/ml, read-out: IC50 of Preparation example 117",0.00156 µg/mL
same,IC50,"[1]; Human immunodeficiency virus 1, MT4, with 3TC 0.50 µg/ml (Table 33, first line with 0.50), read-out: IC50 of Preparation example 117",0.00096 µg/mL
same,IC50,"[1]; Human immunodeficiency virus 1, MT4, with 3TC 0.50 µg/ml (Table 33, second line with 0.50), read-out: IC50 of Preparation example 117",0.00038 µg/mL
same,IC50,"[1]; Human immunodeficiency virus 1, MT4, with 3TC 0.52 µg/ml, read-out: IC50 of Preparation example 117",0.00078 µg/mL
same,IC50,"[1]; Human immunodeficiency virus 1, MT4, with DDI 0.156 µM, read-out: IC50 of Preparation example 117",0.011 µg/mL
same,IC50,"[1]; Human immunodeficiency virus 1, MT4, with DDI 0.313 µM, read-out: IC50 of Preparation example 117",0.0105 µg/mL
same,IC50,"[1]; Human immunodeficiency virus 1, MT4, with DDI 0.63 µM, read-out: IC50 of Preparation example 117",0.01 µg/mL
same,IC50,"[1]; Human immunodeficiency virus 1, MT4, with DDI 1.25 µM, read-out: IC50 of Preparation example 117",0.0077 µg/mL
same,IC50,"[1]; Human immunodeficiency virus 1, MT4, with DDI 1.67 µM, read-out: IC50 of Preparation example 117",0.00625 µg/mL
same,IC50,"[1]; Human immunodeficiency virus 1, MT4, with DDI 2.50 µM, read-out: IC50 of Preparation example 117",0.00385 µg/mL
same,IC50,"[1]; Human immunodeficiency virus 1, MT4, with DDI 2.80 µM, read-out: IC50 of Preparation example 117",0.00313 µg/mL
same,IC50,"[1]; Human immunodeficiency virus 1, MT4, with DDI 3.65 µM, read-out: IC50 of Preparation example 117",0.00156 µg/mL
same,IC50,"[1]; Human immunodeficiency virus 1, MT4, with DDI 4.27 µM, read-out: IC50 of Preparation example 117",0.00039 µg/mL
same,IC50,"[1]; Human immunodeficiency virus 1, MT4, with DDI 4.38 µM, read-out: IC50 of Preparation example 117",0.00078 µg/mL
same,IC50,"[1]; Human immunodeficiency virus 1, MT4, with ZDV 0.78 ng/ml, read-out: IC50 of Preparation example 117",0.028 µg/mL
same,IC50,"[1]; Human immunodeficiency virus 1, MT4, with ZDV 1.20 ng/ml, read-out: IC50 of Preparation example 117",0.025 µg/mL
same,IC50,"[1]; Human immunodeficiency virus 1, MT4, with ZDV 3.13 ng/ml, read-out: IC50 of Preparation example 117",0.0162 µg/mL
same,IC50,"[1]; Human immunodeficiency virus 1, MT4, with ZDV 5.60 ng/ml, read-out: IC50 of Preparation example 117",0.0125 µg/mL
same,IC50,"[1]; Human immunodeficiency virus 1, MT4, with ZDV 12.5 ng/ml, read-out: IC50 of Preparation example 117",0.0053 µg/mL
same,IC50,"[1]; Human immunodeficiency virus 1, MT4, with ZDV 14.5 ng/ml, read-out: IC50 of Preparation example 117",0.00156 µg/mL
same,IC50,"[2]; Human immunodeficiency virus 1, MT4, with ZDV 1.56 ng/ml",0.0241 µg/mL
same,IC50,"[2]; Human immunodeficiency virus 1, MT4, with ZDV 6.25 ng/ml",0.0111 µg/mL
same,IC50,"[2]; Human immunodeficiency virus 1, MT4, with ZDV 11.6 ng/ml",0.00625 µg/mL
same,IC50,"[2]; Human immunodeficiency virus 1, MT4, with ZDV 13.9 ng/ml",0.00313 µg/mL

# Source: EP0878194A1, “REMEDIES OR PREVENTIVES FOR AIDS” (SANKYO COMPANY LIMITED, priority 1996, dated 1997)
